From US10908171B2, “Additive channels” (Emulate Inc., priority 2016, dated 2021)
Entries after “also recorded” stand apart in the source; their conditions may differ. Counter-ions that a name gives are not always drawn. Positions of bridges follow the written chain, without caps; N, C: chain ends. Non-standard residues stand in square brackets, D forms with d. Residues, ends and D or L forms follow the SMILES beside them. hArg = N=C(N)NCCCC[C@H](N)C(=O)O; Mpa = O=C(O)CCS

Legend:
fibrin = assay: Vessel-On-Chip fibrin deposition, fluorescent fibrinogen imaging; assay type: cell-based, human; settings: for fibrin signal intensity: endothelial pre-treatment TNF-α 50 ng/ml 6 hours, or blood with sCollagen 10 μg/ml, vs blood alone; for fibrin deposition on the endothelium: hu5C8 240 μg/ml, sCD40L 10 ng/ml, alone or combined, compared to untreated blood
Description: (§1) Briefly, human blood was drawn in citrate buffer and used within 4 hours. Platelets were stained using fluorescently labeled non-blocking antibodies for the platelet surface marker CD41 and low dosages of fluorescent fibrinogen were added in order to visualize fibrin deposition. Blood was re-calcified in order to re-establish the full coagulation potential, then introduced in the biomimetic vessel-on-chip from the main inlet (embodiments of inlets shown in FIG. 18A-1, FIG. 18A-2 and FIG. 19C). The outlet of the chip was connected to a pulling syringe pump with a system of tubing and connectors made of medical grade silicon that excludes any metal components or potential causes of platelet activation (FIG. 5A).
(§2) Adding Blood to a Vessel-On-Chip And Flow Conditions: A medical grade plastic reservoir was mounted on the chip, then 800 μl of the blood sample was pipetted into the reservoir. The chip was perfused with the blood by withdrawing it at a rate of 60 μl/minute using a syringe pump. The citrated blood was re-calcified 2 minutes after the beginning of each experiment by adding 100 μl/ml of a solution containing 100 mM calcium chloride and 75 mM magnesium chloride to the blood to permit calcium- and magnesium-dependent platelet function and coagulation.
Visualizing Fibrin Deposition: When analyzing the formation of fibrin, 10 μg/ml of fluorescently labeled fibrinogen (Alexa 488, Invitrogen) was also added to the blood. While fluorescent fibrinogen was barely detected as a diffused fluorescence, fibrin deposition on inflamed cells and sparse clots was easily distinguished since fibrin formed filamentous structures produce a signal intensity that is clearly observed above a background threshold.
(§3) Fluorescence Image analysis: Chips perfused with blood samples were immediately imaged via fluorescence microscopy (Olympus IX83, 10× objective UPLFLN10X2, Orca-Flash 4.0 CMOS Camera). Each chamber was inspected along its entire length and 5 images (about 0.25 cm) were captured from the central area of the chamber. Image processing and quantification was performed with an automatic macro compiled in ImageJ and numerical values corresponding to platelet coverage or fibrin florescence were collected and statistically analyzed in Graphpad Prism V7.
(§4) Platelet Coverage: A percentage of signal coverage (or Platelet coverage) was computed from the binary image as the ratio of bright pixels to the total number of pixels in the image. Image processing and quantification was performed with an automatic macro compiled in ImageJ in order to ensure unbiased signal measurements. Numerical values corresponding to platelet coverage or fibrin fluorescence (signal intensity) were collected and statistically analyzed in Graphpad Prism V7.

[1] = system: thrombin anti-thrombin complex (TAT); assay: Thrombin anti-thrombin (TAT) ELISA in plasma of chip effluent; assay type: cell-based, human; settings: for levels of TAT: plasma from blood flowing out of the chip, vs untreated blood
Description: Thrombin converts fibrinogen into fibrin during clot formation, and anti-thrombin plays a role in maintaining homeostasis by inhibiting the effect of thrombin. Formation of TAT in the microdevice confirms that local and intrinsic generation of thrombin, a potent platelet agonist, occurs in the model and that counter regulatory mechanisms for coagulation are retained. Thus, blood sampled from the Vessel-On-Chip was analyzed for thrombin anti-thrombin complex (TAT), an accepted clinical biomarker for procoagulation^48,49. TAT refers to a factor released upon activation of the coagulation cascade and one of the biomarkers associated with thrombotic events occurring in patients affected with deep vein thrombosis (DVT) or Systemic lupus erythematosus (SLE)^45,46. An enzyme-linked immunosorbent assay (ELISA) was used to quantify the thrombin anti-thrombin complex (TAT).
Thrombin-Anti Thrombin (TAT) Measurement via ELISA: Thrombin Anti-Thrombin (TAT) levels were analyzed in plasma from blood flowing out of the chip device by removing a sample from the outflow port. Thus TAT levels were evaluated in sample effluents collected from the outflow port of the chip using the Human TAT ELISA Kit (Siemens Healthineers) according to the user manual.
Blood sampled from the Vessel-On-Chip outflow port was analyzed for thrombin anti-thrombin complex (TAT), a factor released upon activation of the coagulation cascade and one of the biomarkers associated with thrombotic events occurring in patients affected with deep vein thrombosis (DVT) or SLE^45,46. TAT is an accepted clinical biomarker for procoagulation^48,49. An enzyme-linked immunosorbent assay (ELISA) was used to quantify the thrombin anti-thrombin complex (TAT).

platelets = assay: Vessel-On-Chip platelet coverage / aggregation, fluorescence imaging of CD41-labelled platelets in perfused re-calcified blood; assay type: cell-based, human; settings: for platelet coverage: endothelial pre-treatment TNF-α 50 ng/ml 6 hours, or blood with sCollagen 10 μg/ml, vs blood alone; for platelet aggregate formation / platelet coverage: hu5C8 240 μg/ml, sCD40L 10 ng/ml, alone or combined, 60 μl/minute, compared to untreated blood
Description: as §1
After 14 minutes of perfusion, the flow was interrupted and the chips were immediately imaged via fluorescence microscopy (FIG. 18C and FIG. 19D). In healthy conditions, endothelial cells will provide an antithrombotic surface where blood can flow smoothly, and indeed we detected minimal platelet adhesion or fibrin deposition in our vessel-on-chip after blood perfusion in control conditions, FIG. 18C, Blood.
Experiments with Blood: Blood Samples And Endothelium: Citrated human blood (Research Blood Components, Cambridge, Mass.) was used within 4 hours of a blood draw in order to minimize pre-analytical effects on platelet function. Before every experiment, each one of the endothelialized channels (i.e. microchannels having an endothelial cell layer) was inspected via light microscopy. Samples showing any sign of discontinuity in the endothelium were discarded. […] USA) was at room temperature for 20 minutes.
Platelets: Platelets were labeled with human CD41-PE antibody (10 μL/ml, Invitrogen) directly added to the blood and incubated at room temperature for 5 minutes.
as §2, §3, §4

re-calcified blood = assay: On-chip anticoagulation of outflowing blood through the anticoagulant port; design: species or system human; settings: introduced through the anticoagulant port; vs chips without anticoagulant port
Description: In order to functionally test the system, re-calcified blood was perfused through the inlet while anticoagulant, e.g. citrate buffer, was introduced online from the port situated next to the outflow port. Thus, blood obtained from the effluent of chips equipped with the anticoagulant port or without anticoagulant port were compared (FIG. 6). From a qualitative point of view the difference was striking.
In order to functionally test the additive channel (i.e. microfluidic chamber(s)) attached to the outflow port of a Vessel-On-Chip, re-calcified blood was perfused through the inlet port while citrate was introduced online from a port situated next to the outflow port, flowing through the additive channel. Thus, blood obtained from the effluent of chips equipped with the anticoagulant port (additive channel) or without anticoagulant port were compared (FIG. 6). From a qualitative point of view the difference was striking.

ICAM1 = ICAM1 immunostaining of endothelium; assay type: cell-based, human; settings: TNF-α stimulated vs control
Description: ICAM1 is shown with examples identified by white arrows. One example of a DAPI stained nuclei is shown inside of a white circle.
TNF-alpha Stimulation: In some experiment endothelial cells were stimulate with 50 ng/ml of TNF (Sigma) for 6 hours in order to induce vascular inflammation before blood perfusion.

FcγRIIa = assay: hu5C8-mediated thrombosis on-chip, FcγRIIa dependence (platelet coverage, fibrin deposition, TAT); assay type: cell-based, human; settings: with sCD40L, IV.3 1 μg/ml block or IgG2σ variant in place of hu5C8
Description: Recent studies conducted on humanized mice expressing the human Fcγ receptors (FCGR2A) have shown that this receptor plays a role in thrombosis leading to the IC-mediated toxicity^12,16,21. […] In order to investigate if the IC5c8-induced thrombosis that we observed in our vessel-on-chip system also relies on an Fc-mediated mechanism, we used two different tool molecules: IgG2σ and IV.3 (FIG. 25A). The IgG2σ variant of hu5C8 has an engineered Fc region^48 that eliminates affinity for the FcγRIIa, while the monoclonal antibody IV.3 is a blocking antibody binding to FcγIIa. Briefly, equimolar concentrations of IgG2σ […] hu5c8 were incubated with […] sCD40L for 20 minutes to form ICIgG2σ or IC5c8, respectively.
Some of the blood samples were treated with IV.3 (1 μg/ml) for 10 minutes to block the FcγRIIa, and then incubated for 20 more minutes with IC5c8. Finally, blood alone (control) or blood incubated with IC5c8, ICIgG2σ or IV.3 was perfused through the biomimetic microfluidic-on-chip for about 10 minutes. We tested 15 donors and all the tested conditions described above were tested in duplicates and analyzed as percentage of platelet coverage based on fluorescence microscopic imaging (FIG. 25B). Five of the donors were also tested for fibrin deposition (FIG. 25C). Finally, effluents plasma obtained from a total of 7 of the donors (including the 5 mentioned before) were used to assess TAT via ELISA (FIG. 25D). […]
Blood from several human donors were aliquoted into groups for the following treatments: controls (PBS), sCD40L, combined hu5C8/sCD40L, combined hu5C8 (IgG2σ/sCD40L combined, and combined hu5C8/sCD40L/IV.3. Each condition was tested with a minimum of 3 donors to a maximum of 15 donors, and all conditions were tested in duplicates and analyzed for platelet coverage (FIG. 25B), fibrin deposition (FIG. 25C), or increased formation of TAT measured in the eluates (FIG. 25D). Platelet coverage and fibrin deposition following treatment were normalized and reported as fold-increase over untreated control values for each donor.

[2] = lupus and/or Crohn's disease; cited from earlier work
[3] = Eptifibatide 2 μg/ml, endothelium inflamed with TNF-α, n=4

Molecule: N=C(N)NCCCC[C@@H]1NC(=O)CCSSC[C@@H](C(N)=O)NC(=O)[C@@H]2CCCN2C(=O)[C@H](Cc2c[nH]c3ccccc23)NC(=O)[C@H](CC(=O)O)NC(=O)CNC1=O [Eptifibatide] ([Mpa][hArg]GDWPC-NH2; disulfide 1-7)
- fibrin clot formation (fibrin; [3]): significantly inhibited
- fibrin signal (image analysis) (fibrin; Eptifibatide 2 μg/ml, samples treated with TNF-α): a significant amount of fibrin signal was still detectable
- fibrin deposition in stimulated, pro-thrombotic conditions (fibrin; FIG. 18E-2, TNF-α or sCollagen with Eptifibatide, n=4 donors): suppressed
- TAT increment associated with TNF-α-induced inflammation ([1]; Eptifibatide treatment): did not inhibit
- TAT increment due to sCollagen treatment ([1]; Eptifibatide treatment): entirely suppressed
- platelet aggregation (platelets; [3]): significantly inhibited
- inhibitory effect on platelet aggregation and fibrin clot formation (platelets; Eptifibatide 2 μg/ml, following treatment with sCollagen, n=4): comparatively modest
- platelet adhesion (image analysis) (platelets; Eptifibatide 2 μg/ml, samples treated with TNF-α, n=4): completely inhibited
- platelet coverage in stimulated, pro-thrombotic conditions (platelets; FIG. 18E-1, TNF-α or sCollagen with Eptifibatide, n=4 donors): suppressed

Molecule: O=C(O)CC(O)(CC(=O)O)C(=O)O [sodium citrate]
- state of blood collected from the effluent (re-calcified blood): soluble (not clotted) blood

Molecule: TNF-α
- fibrin signal intensity (fibrin): increased
- expression of ICAM1 in the endothelium (ICAM1): increased expression; also recorded: higher
- levels of TAT [1]: significantly increased; also recorded: elevated levels of TAT
- platelet coverage (platelets): increased areas of platelet coverage

Molecule: hu5C8 (IgG2σ): IgG2σ variant of hu5C8 with an engineered Fc region that eliminates affinity for FcγRIIa
- hu5C8-mediated thrombosis on-chip (platelet coverage, fibrin deposition, TAT) (FcγRIIa): did not show signs of thrombosis in any of the endpoints
- hu5C8-mediated thrombosis on-chip (platelet coverage, fibrin deposition, TAT) (FcγRIIa; listed as IgG2σ): suppressed
- hu5C8-mediated thrombosis on-chip (platelet coverage, fibrin deposition, TAT) (FcγRIIa; listed as hu5C8-IgG2σ): not detected

Molecule: hu5C8: humanized monoclonal IgG1 antibody against CD40L, alternatively named anti-CD154
- thromboembolism and cardiovascular events during clinical trials [2]: multiple incidents of thromboembolism and cardiovascular events
- fibrin deposition on the endothelium (fibrin): no significant treatment-related effects
- platelet aggregate formation / platelet coverage (platelets): no significant treatment-related effects

Molecule: sCollagen: soluble collagen (Soluble Calf Skin, Type I), a standard platelet activator
- fibrin signal intensity (fibrin): increased
- levels of TAT [1]: minimally increased; also recorded: elevated levels of TAT
- platelet coverage (platelets): increased areas of platelet coverage

B1: sCD40L: soluble CD40 ligand (CD154); recombinant human sCD40 Ligand (protein, UniProt P29965 47-261, looked up)
extracellular domain: HRRLDKIEDERNLHEDFVFMKTIQRCNTGERSLSLLNCEEIKSQFEGFVKDIMLNKEETKKENSFEMQKGDQNPQIAAHVISEASSKTTSVLQWAEKGYYTMSNNLVTLENGKQLTVKRQGLYYIYAQVTFCSNREASSQAPFIASLCLKSPGRFERILLRAANTHSSAKPCGQQSIHLGGVFELQPGASVFVNVTDPSQVSHGTGFTSFGLLKL
modifications: extracellular domain
- fibrin deposition on the endothelium (fibrin): no significant treatment-related effects
- increase in platelet coverage in some donors (platelets; fold-increase over untreated control): about 2 fold
- platelet aggregate formation / platelet coverage (platelets): no significant treatment-related effects; also recorded: not statistically significant
